{
  "source": "ChEMBL document CHEMBL4613228",
  "about": "“Identification of small-molecule urea derivatives as novel NAMPT inhibitors via pharmacophore-based virtual screening” (Bioorg Med Chem, 2020)",
  "key": {"HepG2": {"system": "HepG2", "assay": "Cytotoxicity against human HepG2 cells assessed as reduction in cell viability measured after 72 hrs by SRB assay", "assay_type": "functional, cell-based", "conditions": "for IC50: HepG2, 72 h"}, "[1]": {"target": "Nicotinamide phosphoribosyltransferase (Homo sapiens, UniProt P43490)", "sequence (P43490 whole entry)": "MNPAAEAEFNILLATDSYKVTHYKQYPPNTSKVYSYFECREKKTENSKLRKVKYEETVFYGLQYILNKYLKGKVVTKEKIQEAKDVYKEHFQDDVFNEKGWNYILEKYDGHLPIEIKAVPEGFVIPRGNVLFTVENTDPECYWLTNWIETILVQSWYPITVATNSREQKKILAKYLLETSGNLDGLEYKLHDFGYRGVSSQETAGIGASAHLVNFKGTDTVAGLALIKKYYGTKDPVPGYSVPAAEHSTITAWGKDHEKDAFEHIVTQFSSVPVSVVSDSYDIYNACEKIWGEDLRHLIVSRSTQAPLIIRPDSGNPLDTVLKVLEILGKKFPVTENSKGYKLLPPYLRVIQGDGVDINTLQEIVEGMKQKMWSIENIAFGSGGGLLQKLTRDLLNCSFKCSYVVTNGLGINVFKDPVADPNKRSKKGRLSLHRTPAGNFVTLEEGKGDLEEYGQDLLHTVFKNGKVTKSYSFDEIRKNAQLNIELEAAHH", "assay": "Inhibition of NAMPT (unknown origin) using NAM and PRPP as substrates incubated for 2 hrs in presence of ATP by fluorimetric plate reader assay"}},
  "data": [
    {"smiles": "CCCOC(=O)c1ccc(NC(=O)NCc2cccnc2)cc1", "values": [
      {"measurement": "inhibition", "setting": "HepG2", "value": "Dose-dependent effect"},
      {"measurement": "IC50", "setting": "HepG2", "value": 15.2, "unit": "µM"},
      {"measurement": "IC50", "setting": "[1]", "value": 2.15, "unit": "µM"}
    ]},
    {"smiles": "CCOC(=O)c1ccc(NC(=O)NCc2ccnc(-n3ccnc3C)c2)cc1", "values": [
      {"measurement": "IC50", "setting": "HepG2", "value": 24.3, "unit": "µM"},
      {"measurement": "IC50", "setting": "[1]", "value": 7.31, "unit": "µM"}
    ]},
    {"smiles": "O=C(/C=C/c1cccnc1)NCCCCC1CCN(C(=O)c2ccccc2)CC1", "note": "[DAPORINAD]", "values": [
      {"measurement": "IC50", "setting": "HepG2", "value": 0.0187, "unit": "µM"}
    ]}
  ]
}
